Reference: patent US20110306778A1, “CRYSTAL OF SPIROKETAL DERIVATIVES AND PROCESS FOR PREPARATION OF SPIROKETAL DERIVATIVES” (priority 2008, published 2011)

How the values were obtained:
[1] = Storage stability test (total amount of impurities by HPLC after storage in thermostatic chambers); format: physicochemical; conditions: for Course of the total amounts of impurities during storage: both at 25° C. and 40° C.
Method: A storage stability test was carried out for monohydrate crystal and an amorphous form of the compound of Formula (XI). The monohydrate crystal of the compound of Formula (XI) was prepared according to the procedure of Example 1, Step 7. The amorphous form of the compound of Formula (XI) was obtained by the following procedure. The monohydrate crystal of the compound (15 g) was melted by heating on hot-stage, and allowed to be cooled to room temperature in a humidity-controlled desiccator (25° C./dry). The resulting solid was grinded in mortar to give a sample used as an amorphous form. The samples were stored in thermostatic chambers at 25° C. or 40° C., and the purity each of the samples was observed after 1 month, 3 months and 6 months.
The purity was determined in the following procedure. A portion each of the samples was weighed precisely (ca. 6 mg) and dissolved in a mixture of water and methanol (1:1) to be 10 mL accurately. The resulting solutions were used as sample solutions, and a portion (10 μL) each of the sample solutions was subjected to HPLC analysis. A total amount of impurities were calculated according to the following formula.
Measurement Condition of HPLC
Device: 2695 Separations Module (manufactured by Waters), 2487 Dual k Absorbance Detector (manufactured by Waters) or 996 Photodiode Array Detector (manufactured by Waters)
Column: YMC-Pack ODS-AM AM-302-3, 4.6 mm I.D.×15 cm, particle size 3 μm (manufactured by YMC)
Mobile phase: Eluent A=methanol, Eluent B=water
Gradient operation: Eluent A: 55% (15 min), Eluent A: 55% to 100% (10 min), 100% (5 min)
Detection wavelength: 220 nm
Sample cooler temperature: 5° C.
Period for measuring peak area: 30 minutes after injection
A storage stability test was carried out for co-crystal of the compound of Formula (XI) with sodium acetate according to the procedure of Test Example 2. The co-crystal of the compound of Formula (XI) with sodium acetate was prepared according to the procedure of Example 5. The samples were stored in thermostatic chambers at 25° C. or 40° C., and the purity each of the samples was observed after 1 month and 3 months. The measurement results were compared with those for the amorphous form obtained in Test Example 2.
A storage stability test was carried out for co-crystal of the compound of Formula (XI) with potassium acetate according to the procedure of Test Example 2. The co-crystal of the compound of Formula (XI) with potassium acetate was prepared according to the procedure of Example 6. The samples were stored in thermostatic chambers at 25° C. or 40° C., and the purity each of the samples was observed after 1 month and 3 months. The measurement results were compared with those for the amorphous form obtained in Test Example 2.

SGLT2 = target: T1, SGLT2 (Homo sapiens, UniProt P31639); conditions: statement of Patent Document 1 (WO 2006/080421 A1); cited from earlier work
T1 sequence (P31639 1-672): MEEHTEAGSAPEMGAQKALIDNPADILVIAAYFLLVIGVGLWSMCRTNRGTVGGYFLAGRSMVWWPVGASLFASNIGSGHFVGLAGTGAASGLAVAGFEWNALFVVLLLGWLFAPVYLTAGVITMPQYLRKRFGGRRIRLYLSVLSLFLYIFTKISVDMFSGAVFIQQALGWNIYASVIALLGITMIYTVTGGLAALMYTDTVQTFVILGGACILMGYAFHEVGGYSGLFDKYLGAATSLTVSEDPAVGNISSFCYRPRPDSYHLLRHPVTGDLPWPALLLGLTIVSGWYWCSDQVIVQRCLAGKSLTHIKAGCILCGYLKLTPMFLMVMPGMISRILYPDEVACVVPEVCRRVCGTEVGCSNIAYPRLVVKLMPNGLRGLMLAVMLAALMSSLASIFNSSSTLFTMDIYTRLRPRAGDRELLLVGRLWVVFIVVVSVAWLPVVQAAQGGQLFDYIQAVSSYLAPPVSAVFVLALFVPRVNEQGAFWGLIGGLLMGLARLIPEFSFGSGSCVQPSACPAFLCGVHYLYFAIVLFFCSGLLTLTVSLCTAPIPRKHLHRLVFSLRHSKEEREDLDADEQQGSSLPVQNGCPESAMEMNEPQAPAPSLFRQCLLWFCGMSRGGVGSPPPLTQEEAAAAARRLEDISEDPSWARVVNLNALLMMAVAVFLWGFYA

Structure (SMILES)	Course of the total amounts of impurities during storage [1]	Total amount of impurities (%) ([1]; storage at 25° C., 0 month)	Total amount of impurities (%) ([1]; storage at 25° C., 3 month)	Total amount of impurities (%) ([1]; storage at 25° C., 6 month)	Total amount of impurities (%) ([1]; storage at 40° C., 0 month)	Total amount of impurities (%) ([1]; storage at 40° C., 1 month)	Total amount of impurities (%) ([1]; storage at 40° C., 3 month)	Total amount of impurities (%) ([1]; storage at 40° C., 6 month)	Inhibitory activity against SGLT2 (SGLT2)
CCc1ccc(Cc2ccc3c(c2)[C@]2(OC3)O[C@H](CO)[C@@H](O)[C@H](O)[C@H]2O)cc1 [Amorphous form, 1,1-anhydro-1-C-[5-(4-ethylphenyl)methyl-2-(hydroxymethyl)phenyl]-β-D-glucopyranose]	increased time-dependently	0.35	0.66	0.87	0.35	0.62	0.92	1.46	–
CCc1ccc(Cc2ccc3c(c2)[C@]2(OC3)O[C@H](CO)[C@@H](O)[C@H](O)[C@H]2O)cc1 [Co-crystal with potassium acetate, 1,1-anhydro-1-C-[5-(4-ethylphenyl)methyl-2-(hydroxymethyl)phenyl]-β-D-glucopyranose]	maintained nearly constant for 3 months	0.08	0.08	–	0.08	0.08	0.08	–	–
CCc1ccc(Cc2ccc3c(c2)[C@]2(OC3)O[C@H](CO)[C@@H](O)[C@H](O)[C@H]2O)cc1 [Co-crystal with sodium acetate, 1,1-anhydro-1-C-[5-(4-ethylphenyl)methyl-2-(hydroxymethyl)phenyl]-β-D-glucopyranose]	maintained nearly constant for 3 months	0.07	0.07	–	0.07	0.07	0.08	–	–
CCc1ccc(Cc2ccc3c(c2)[C@]2(OC3)O[C@H](CO)[C@@H](O)[C@H](O)[C@H]2O)cc1 [Formula (B)]	–	–	–	–	–	–	–	–	excellent inhibitory activity
CCc1ccc(Cc2ccc3c(c2)[C@]2(OC3)O[C@H](CO)[C@@H](O)[C@H](O)[C@H]2O)cc1 [Monohydrate crystal, 1,1-anhydro-1-C-[5-(4-ethylphenyl)methyl-2-(hydroxymethyl)phenyl]-β-D-glucopyranose]	maintained nearly constant for 6 months	0.30	0.29	0.32	0.30	0.32	0.31	0.36	–
